Among the test systems are HCT-116 colon; K-562 leukemia; IGROV1 ovarian; NCI-H226 lung; CCRF-CEM leukemia; U251 CNS; A549 NSCLC; OVCAR-5 ovarian; MALME-3M melanoma; OVCAR-4 ovarian.
Common to all, as to assay: NCI tumour cell line growth inhibition, 48 h

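Cultured in 96-well plates, cells were exposed to test compound for 48 hours across five concentrations. TGI: concentration producing complete growth inhibition.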 Bounds are passed on as bounds.

As for `CC1(C)CC(C#Cc2ccccc2)CC(C)(C)N1O`, the TGI is 43.5 µM in the assay on HCT-116 colon; greater than 100 µM in the assay with K-562 leukemia; greater than 100 µM with IGROV1 ovarian; 53.6 µM in the assay with NCI-H226 lung; greater than 100 µM with CCRF-CEM leukemia; 64.6 µM with U251 CNS. Moreover, the TGI with A549 NSCLC was 75.5 µM; with OVCAR-5 ovarian, 44.2 µM; in the assay on MALME-3M melanoma, 32.9 µM; in the assay on OVCAR-4 ovarian, greater than 100 µM.

Take `Cc1cc(O)c(-c2cc(O)c(C)cc2O)cc1O`: the TGI in the assay with HCT-116 colon is 21.7 µM; in the assay with K-562 leukemia, 4.65 µM; with IGROV1 ovarian, 25.9 µM; in the assay with NCI-H226 lung it was 46.4 µM; in the assay on CCRF-CEM leukemia, 3.8 µM; in the assay on U251 CNS it was 30.3 µM. The TGI in the assay on A549 NSCLC was found to be 49.5 µM; in the assay with OVCAR-5 ovarian, 32.9 µM; with MALME-3M melanoma, 25.5 µM; with OVCAR-4 ovarian it was 20.9 µM.

With `O=C(O)CN(CC(=O)O)C(C(=O)O)c1ccccc1` (stereo not given), the TGI in the assay with HCT-116 colon, with K-562 leukemia, with IGROV1 ovarian, with NCI-H226 lung, with CCRF-CEM leukemia and in the assay on U251 CNS was greater than 100 µM throughout. The TGI with A549 NSCLC, in the assay on OVCAR-5 ovarian, in the assay on MALME-3M melanoma and in the assay on OVCAR-4 ovarian was greater than 100 µM in each case.

With `CCNc1ncnc2sc(SCc3ccccc3)nc12`, the TGI in the assay with HCT-116 colon, in the assay on K-562 leukemia, in the assay with IGROV1 ovarian, with NCI-H226 lung, in the assay on CCRF-CEM leukemia and in the assay on U251 CNS was greater than 100 µM each time. Also, the TGI with A549 NSCLC, in the assay on OVCAR-5 ovarian, in the assay on MALME-3M melanoma and in the assay with OVCAR-4 ovarian was greater than 100 µM in each case.

Turning to `S=C1NC2=C(CSC/C2=C\c2ccccc2)C(c2ccccc2)N1` (stereo not given), the TGI in the assay with HCT-116 colon, in the assay on K-562 leukemia, in the assay with IGROV1 ovarian, in the assay with NCI-H226 lung, in the assay on CCRF-CEM leukemia and in the assay on U251 CNS was greater than 100 µM each time. The TGI with A549 NSCLC is greater than 100 µM; with OVCAR-5 ovarian, greater than 100 µM; in the assay on MALME-3M melanoma it was 99.4 µM; in the assay on OVCAR-4 ovarian it was greater than 100 µM.

Consider `O=C(OCC1OC(n2nc(Cn3nnc(-c4cccnc4)n3)n(-c3cccc4ccccc34)c2=S)C(OC(=O)c2ccccc2)C1OC(=O)c1ccccc1)c1ccccc1` (stereo not given), for which the TGI in the assay on HCT-116 colon, in the assay on K-562 leukemia, with IGROV1 ovarian, with NCI-H226 lung, with CCRF-CEM leukemia and with U251 CNS was greater than 100 µM throughout. In addition, the TGI in the assay with A549 NSCLC, in the assay on OVCAR-5 ovarian, in the assay on MALME-3M melanoma and with OVCAR-4 ovarian was greater than 100 µM throughout.

Take `CC1(C)N=C2C(=O)c3c([nH]c4ccccc34)[C@]3(C)CCC1CC23` (stereo not given in full): the TGI with HCT-116 colon, in the assay with K-562 leukemia, with IGROV1 ovarian, in the assay with NCI-H226 lung, in the assay on CCRF-CEM leukemia and in the assay on U251 CNS was greater than 6.25 µM in each case. For the same molecule, the TGI in the assay with A549 NSCLC, with OVCAR-5 ovarian, in the assay on MALME-3M melanoma and in the assay with OVCAR-4 ovarian was greater than 6.25 µM each time.

Turning to `C[n+]1c(/C=C/c2ccc(O)c3ncccc23)[se]c2ccccc21`, the TGI in the assay with HCT-116 colon is 11.4 µM; with K-562 leukemia, 44.4 µM; in the assay on IGROV1 ovarian, greater than 37.8 µM; with NCI-H226 lung, 30.5 µM; with CCRF-CEM leukemia it was 4.22 µM; in the assay with U251 CNS, 16.3 µM. In addition, the TGI with A549 NSCLC was 42 µM; in the assay on OVCAR-5 ovarian it was 40.4 µM; in the assay with MALME-3M melanoma, 20.3 µM; with OVCAR-4 ovarian, greater than 47 µM.

In the case of `CSc1nc2c(ncn2C2OC(CO)C(O)C(O)C2O)c(=O)[nH]1` (stereo not given), the TGI in the assay on HCT-116 colon, with K-562 leukemia, in the assay with IGROV1 ovarian, in the assay with NCI-H226 lung, with CCRF-CEM leukemia and with U251 CNS was greater than 100 µM each time. In addition, the TGI in the assay on A549 NSCLC, in the assay with OVCAR-5 ovarian, in the assay on MALME-3M melanoma and with OVCAR-4 ovarian was greater than 100 µM in each case.

On to `CC(C)C1=C(O)C2=C(C(=O)C1=O)C1(C)CCCC(C)(C)C1C(O)C2OC=O` (stereo not given), for which the TGI in the assay on HCT-116 colon is 20.3 µM; in the assay with K-562 leukemia, greater than 100 µM; with IGROV1 ovarian it was 22.2 µM; in the assay with NCI-H226 lung, 20.2 µM; in the assay with CCRF-CEM leukemia it was 8.47 µM; in the assay on U251 CNS, 17.1 µM. Moreover, the TGI worked out at 35.8 µM in the assay on A549 NSCLC, 30.9 µM in the assay with OVCAR-5 ovarian, 23.7 µM in the assay with MALME-3M melanoma and 22.8 µM in the assay with OVCAR-4 ovarian.

As to `CCCCCCCCCCCC1CC(=O)NCCCN(C)CCCCN(C)CCCN1C` (stereo not given), the TGI in the assay on HCT-116 colon was found to be 2.89 µM; in the assay with K-562 leukemia, 0.699 µM; in the assay with IGROV1 ovarian, 3.22 µM; in the assay with NCI-H226 lung it was 3.43 µM; in the assay on CCRF-CEM leukemia, 2.85 µM; with U251 CNS, 3.04 µM. The TGI in the assay on A549 NSCLC stood at 3.16 µM; in the assay with OVCAR-5 ovarian, 3.3 µM; with MALME-3M melanoma, 3.33 µM; with OVCAR-4 ovarian it was 3.12 µM.

In the case of `CC(C)[Si](OC/C(=C/COC(C)(C)C)[C@H]1CC=C(C(=O)c2ccccc2N2CN(C)C(=O)N(C)C2)C1)(C(C)C)C(C)C`, the TGI with HCT-116 colon is 4.97 µM; with K-562 leukemia, greater than 36.4 µM; in the assay on IGROV1 ovarian, 25.6 µM; with NCI-H226 lung, 28.9 µM; with CCRF-CEM leukemia, greater than 100 µM; in the assay on U251 CNS, 23 µM. The TGI in the assay with A549 NSCLC worked out at 23 µM; with OVCAR-5 ovarian it was 28.7 µM; with MALME-3M melanoma it was 21.4 µM; with OVCAR-4 ovarian, 39.3 µM.

Take `COc1ccc2c(c1)c(=O)c1c(NCCNCCO)ccc3c(=O)n(CCN(C)C)c(=O)n2c31`: the TGI in the assay on HCT-116 colon was 0.348 µM; with K-562 leukemia, 0.333 µM; in the assay with IGROV1 ovarian it was 1.46 µM; in the assay on NCI-H226 lung, 0.912 µM; in the assay on CCRF-CEM leukemia, greater than 100 µM; in the assay on U251 CNS it was 0.937 µM. Also, the TGI is 3.17 µM in the assay with A549 NSCLC, 3.05 µM in the assay with OVCAR-5 ovarian, 0.449 µM in the assay with MALME-3M melanoma and 0.511 µM with OVCAR-4 ovarian.

The record behind these values is PubChem BioAssay (NCI).
